Results from PubChem BioAssay AID463199 (Broad Institute, 2010).
Calls of active or inactive are those of the source.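 Rule for the calls: active = AC50, the dose giving half-maximal effect, exceeds a fixed cutoff for a compound that rescues yeast growth under heat; inactive = the rest, inconclusive results apart.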

System: S. cerevisiae Burl-1 ts mutant growth, BacTiter-Glo, 38.5C 24 h
Assay: restored growth of temperature-sensitive Burl-1 yeast – whole organism, S. cerevisiae, Burl-1 ts mutant, luminescence, counter-screen for SUMOylation pathway inhibitor project, dose response (AID 463199)

Structure (SMILES) | AC50
Cc1ccc(NC(=S)NNC(=O)c2ccc(N3CCOCC3)c([N+](=O)[O-])c2)cc1C | > 42 µM (inactive)
CC(NC(=O)C12CC3CC(CC(O)(C3)C1)C2)c1ccccc1 (stereo unspecified) | > 42 µM (inactive)
COc1ccc(CCNC(=O)c2cc(-c3ccco3)on2)cc1OC | > 42 µM (inactive)
CCCCOc1ccc(C(=O)Nc2ccc(N3CCN(C)CC3)cc2)cc1 | > 42 µM (inactive)
CCNC(=O)COc1ccc(S(=O)(=O)Nc2ccccc2)cc1 | > 21 µM (inactive)
COc1ccc(Nc2oc(-c3cccs3)nc2C#N)cc1 | > 42 µM (inactive)
CCOC(=O)c1oc2c(c1C)C(=O)CCC2 | > 42 µM (inactive)
O=C(O)CCC(=O)N1N=C(c2c(-c3ccccc3)c3cc(Cl)ccc3[nH]c2=O)CC1c1ccco1 (stereo unspecified) | > 42 µM (inactive)
COc1cc2c(cc1OC)C(c1ccccc1C)CC(=O)N2 (stereo unspecified) | > 42 µM (inactive)
CCN1C(=O)c2cccc3c(S(=O)(=O)Nc4ccc(OC)cc4OC)ccc1c23 | > 42 µM (inactive)
CCn1nc(C(=O)OCc2cccc(S(=O)(=O)N(C)C)c2)c2ccccc2c1=O | > 42 µM (inactive)
CCNC(=O)NC1c2ccccc2CSc2ccccc21 (stereo unspecified) | > 42 µM (inactive)
CN=C1SC(CC(=O)Nc2sc3c(c2C#N)CCCC3)C(=O)N1C (stereo unspecified) | > 42 µM (inactive)
CC(C)(C)NC(=O)C1Cc2ccccc2CN1S(=O)(=O)c1ccc(F)cc1 (stereo unspecified) | > 42 µM (inactive)
O=C(OCc1nc2ccsc2c(=O)[nH]1)c1ccco1 | > 42 µM (inactive)
COC(=O)/C=C\C(=O)Nc1cccc([N+](=O)[O-])c1 | > 42 µM (inactive)
CCc1nn(C)c(N)c1C | > 42 µM (inactive)
Cc1cc(NC(=O)c2ccccc2F)n(C(C)(C)C)n1 | > 42 µM (inactive)
Cc1ccc(C(C(=O)NC2CCCCC2)N(CCC(C)C)C(=O)CNC(=O)c2ccco2)o1 (stereo unspecified) | > 42 µM (inactive)
CC(=O)Nc1ccccc1C(=O)C(=O)Nc1ccc(C(=O)NCC2CCCO2)cc1 (stereo unspecified) | > 42 µM (inactive)
NC(=O)c1cccc2cc3ccccc3cc12 | > 42 µM (inactive)
CC(C)=CC(=O)N1CCCC(N2CCN(c3ccc(F)cc3)CC2)C1 (stereo unspecified) | 2.02 µM
COc1cc2c(cc1NC(=O)c1cccnc1)oc1ccccc12 | > 42 µM (inactive)
O=C(COc1ccc([N+](=O)[O-])cc1)Nc1ccc(C(=O)NCc2cccnc2)cc1 | > 42 µM (inactive)
COc1ccc(/C=C2/SC(=O)N(NS(=O)(=O)c3ccccc3)C2=S)cc1OC | > 42 µM (inactive)
CC1CCCC(C)N1CCCNC(=O)c1csc2c1CCCCC2 (stereo unspecified) | > 42 µM (inactive)

Structure (SMILES) | AC50
COc1ccc(C(=O)Nn2c(SCC(=O)NCc3ccccc3)nc3ccccc3c2=O)cc1 | > 42 µM (inactive)
CCOC(=O)C1=C(C)NC(=O)CC1c1cc2c(cc1[N+](=O)[O-])OCO2 (stereo unspecified) | 22.3 µM
COc1ccc(CN(C)S(=O)(=O)c2nnc(NC(=O)c3ccc(C)cc3)s2)cc1OC | > 42 µM (inactive)
Cc1ccc(C(=O)NCC(=O)Nc2ccc3c(c2)OCCO3)cc1 | 18.5 µM
O=C1C2C(c3ccccc3)CC=CC2[C@H](c2ccc3ccccc3c2)N1Cc1ccccc1 (stereo partly specified) | > 42 µM (inactive)
O=C(/C(=N\Nc1ccc(Br)cc1)Sc1nnnn1-c1ccccc1)c1ccccc1 | > 42 µM (inactive)
CCOP(=O)(OCC)c1cc(CC)ccc1O | > 42 µM (inactive)
COC(=O)c1ccc(NC(=O)CCN2CCN(c3ccccc3)CC2)cc1 | > 42 µM (inactive)
COc1ccc(C2=NOC(Cn3nc(C(=O)NCc4cccs4)cc3-c3ccccc3)C2)cc1 (stereo unspecified) | > 42 µM (inactive)
CC(C)CNc1cc(=O)n(C)c(=O)n1C | > 42 µM (inactive)
O=C(COc1ncnc2c(Cl)cc(Cl)cc12)NCCC1=CCCCC1 | > 42 µM (inactive)
S=C(NCCc1ccccc1)Nc1ccccc1Cl | > 42 µM (inactive)
O=C1CCN(Cc2ccccc2)CCN1CCOc1ccccc1 | > 42 µM (inactive)
COc1ccc(NC(=O)CN(C)C(=O)c2cc(C)on2)cc1 | > 42 µM (inactive)
O=Nc1c(-c2cccc([N+](=O)[O-])c2)nc2ncccn12 | > 42 µM (inactive)
CCC(=O)N1c2ccc(S(=O)(=O)N3CCN(c4ccc([N+](=O)[O-])cc4)CC3)cc2CC1C (stereo unspecified) | > 42 µM (inactive)
C=CCN1C(=O)/C(=C2/Sc3ccc(OC)cc3N2C)SC1=Nc1ccccc1 | > 42 µM (inactive)
COc1ccc(NC2CC(=O)N(C(C)C)C2=O)cc1 (stereo unspecified) | > 42 µM (inactive)
Cc1ccccc1NC(=O)c1ccccc1NC(=O)c1ccco1 | > 42 µM (inactive)
CCc1c(C)c2ccc(OCC(=O)OC(C)C)c(C)c2oc1=O | > 42 µM (inactive)
CN(CP(=O)(O)C(O)c1ccccc1)S(C)(=O)=O (stereo unspecified) | > 42 µM (inactive)
COc1ccccc1OCCCn1cc(C#N)c2ccccc21 | > 42 µM (inactive)
CCCn1nc(C(=O)NNC(=O)c2cc(S(=O)(=O)NC)ccc2Br)c2ccccc2c1=O | > 42 µM (inactive)
O=C(Nc1ccc(Cl)cc1)C1=Cc2ccccc2OC1 | > 42 µM (inactive)
Cc1cc(C)cc(N(CC(=O)Nc2cccc(C)n2)S(=O)(=O)c2c(C)noc2C)c1 | > 42 µM (inactive)
CC(=O)NCc1c(Cl)cccc1-n1cccc1 | > 42 µM (inactive)

Structure (SMILES) | AC50
Cc1ccc2nc(/C(C#N)=C\c3cc(O)ccc3[N+](=O)[O-])[nH]c2c1 | > 42 µM (inactive)
CN(C)CC/C=C1/c2cc(F)ccc2Sc2ccc(Cl)cc21 | > 42 µM (inactive)
N=c1c[n+](C2CCCCC2)[n-]o1 | > 42 µM (inactive)
Cc1ccc(NC(=O)C(CC(C)C)NC(=O)C2CCC(C)CC2)nc1 (stereo unspecified) | > 42 µM (inactive)
CCCNC(=O)COC(=O)CCC(=O)c1cccs1 | > 42 µM (inactive)
Cc1nnsc1C(=O)N1CCC(CO)(Cc2ccccc2Cl)CC1 | > 42 µM (inactive)
O=C(/C=C/c1cccc([N+](=O)[O-])c1)NCCSCc1ccc(Cl)cc1Cl | > 42 µM (inactive)
O=C(OCc1ccccc1)c1cccc(-c2nnn(Cc3ccccc3)n2)c1 | > 42 µM (inactive)
Cc1ccc(NC(=O)Nc2cccc(C(F)(F)F)c2)nc1 | > 42 µM (inactive)
CSc1ccccc1-c1nc(-c2ccncc2)no1 | > 42 µM (inactive)
O=C(Nc1ccc(Cl)cc1)N1CCC(c2nc(-c3ccc(F)cc3)no2)CC1 | > 42 µM (inactive)
COc1ccc2[nH]cc(CCNS(=O)(=O)c3ccc(C)cc3)c2c1 | > 42 µM (inactive)
Cc1nn(C)cc1CNC(=O)C1CCC(=O)N(Cc2cccc(C(F)(F)F)c2)C1 (stereo unspecified) | > 42 µM (inactive)
CCC(CC)NC(=O)c1oc2ccccc2c1COc1ccccc1 | > 42 µM (inactive)
COCCN(C(=O)C1CC1)c1nnc(-c2ccc(C)cc2)s1 | > 42 µM (inactive)
Cc1cc(C)c(NC(=O)CCN2CCN(Cc3ccccc3)CC2)c(C)c1 | > 42 µM (inactive)
Cc1[nH]nc2c1C(c1cccs1)C1=C(CC(C)(C)CC1=O)N2 (stereo unspecified) | > 42 µM (inactive)
COc1cc(C(=O)Nc2ccc3c(c2)OCCO3)ccc1-n1cnnn1 | > 42 µM (inactive)
COc1cc(OC)cc(OC(=O)c2ccc3c(=O)n4c(nc3c2)CCC4)c1 | > 42 µM (inactive)
CN(C)S(=O)(=O)c1cccc(NC(=O)COc2nc3ccccc3nc2N2CCOCC2)c1 | > 42 µM (inactive)
COc1cccc(CN(C)C(=O)C2CCC(=O)N(Cc3cccc(F)c3)C2)c1 (stereo unspecified) | > 42 µM (inactive)
COC(=O)c1ccc(CN2CCN(C3CCCCC3)C(CCO)C2)cc1 (stereo unspecified) | > 42 µM (inactive)
Cc1cc([N+](=O)[O-])ccc1NC(=O)CSc1nccc(=O)[nH]1 | > 42 µM (inactive)
N#C/C(=C\c1cc([N+](=O)[O-])c(N2CCOCC2)cc1N1CCOCC1)c1nc2ccccc2[nH]1 | > 42 µM (inactive)
O=C1C2CCCN2C(=S)N1C1CCCCC1 (stereo unspecified) | > 42 µM (inactive)
CCNc1ccccc(C(=O)/C=C/c2ccc3c(c2)OCO3)c1=O | > 42 µM (inactive)

Structure (SMILES) | AC50
COc1ccc2cc(C#N)c(Nc3cccc(F)c3)nc2c1 | > 42 µM (inactive)
CS(=O)(=O)NCc1ccc(C(=O)NC2CCCCC2)cc1 | > 42 µM (inactive)
O=C1NC(Cc2c[nH]c3ccccc23)C(=O)N1Cc1ccc(CN2C(=O)NC(Cc3c[nH]c4ccccc34)C2=O)cc1 (stereo unspecified) | > 42 µM (inactive)
Brc1ccc(-c2cn3cccnc3n2)cc1 | > 42 µM (inactive)
CCOC(C(=O)OCCCN(CC)CC)(c1ccccc1)c1ccccc1 | > 42 µM (inactive)
CC1(C)CC(=O)C(C=Nc2ccc(O)c(N=CC3=C(O)CC(C)(C)CC3=O)c2)=C(O)C1 | > 42 µM (inactive)
O=S(=O)(c1ccccc1)N1CCN(c2nc3ccccc3s2)CC1 | > 42 µM (inactive)
Cc1cccc(C)c1NC(=O)C(Cl)C(=O)c1ccccc1 (stereo unspecified) | > 42 µM (inactive)
CC1CC(C)(C)NC(=S)N1CC(=O)NCc1ccc(F)cc1 (stereo unspecified) | > 42 µM (inactive)
OCCN1CN=C(Nc2nc3ccccc3o2)NC1 | > 42 µM (inactive)
CC(C)c1onc(C(=O)N(C)Cc2ccccc2)c1[N+](=O)[O-] | > 42 µM (inactive)
CCCc1cc(=S)n2c([nH]c3ccccc32)c1C#N | > 42 µM (inactive)
CN(C)c1ccc(/C=N\Nc2ccccn2)cc1 | > 42 µM (inactive)
COCC(=O)n1nc(-c2ccccc2)nc1NCc1ccc(N(C)C)cc1 | > 42 µM (inactive)
COc1cccc2[nH]c(=O)c(-c3ccccc3)cc12 | > 42 µM (inactive)
CC(C)CN(C(=O)COC(=O)c1ccc2c(c1)OCO2)c1c(N)n(Cc2ccccc2)c(=O)[nH]c1=O | > 42 µM (inactive)
Cc1[nH]c(C)c(S(=O)(=O)NCC(C)c2ccccc2)c1C(=O)N1CCCCC1 (stereo unspecified) | > 42 µM (inactive)
CCN(CC)c1nc(Nc2ccc(Cl)cc2)nc(OCC#N)n1 | > 42 µM (inactive)
CCOP(=O)(OCC)C(NC(=O)c1cccc([N+](=O)[O-])c1)C(Cl)(Cl)Cl (stereo unspecified) | > 42 µM (inactive)
Cc1nc(CC(=O)N/N=C/c2ccc(OCC(=O)O)cc2)cs1 | > 42 µM (inactive)
Cc1ccc(S(=O)(=O)n2cccc2C)cc1 | > 42 µM (inactive)
COC(=O)c1cc2c(s1)-c1ccc(OC)cc1CC2 | > 42 µM (inactive)
CCOc1ccc2nc(CN3CCN(Cc4ccccc4OCC)C(CCO)C3)ccc2c1 (stereo unspecified) | > 42 µM (inactive)
